Experimental data reported in PMC5381078, “Carboxylate derivatives of tributyltin (IV) complexes as anticancer and antileishmanial agents” (DARU Journal of Pharmaceutical Sciences, 2017).
≈ marks a conversion by molar mass, not a printed value. Numbered stars: 1 amine (or outer) side, 2 acyl side, 3 side chain; on linkers, the order of the positions; unused ones are H or OH. Bridge positions count the residues as written; N and C are the ends. Square brackets hold non-standard residues; d marks the D form. Peptide text beside a SMILES is read from it. X1 = CC(C)CCCCCCCCC[C@H](CC(=O)[*:1])O[*:2]

Columns and labels:
THP-1 cell line = test: Cytotoxicity against THP-1 cell line (MTT assay); type: cell-based, human; conditions: 72 h; for THP-1 % growth inhibition: 20 μg/mL
Procedure: Cytotoxicity of tributyltin (IV) compounds against THP-1 cell line was determined by 3-(4,5-dimethylthiazol-2-yl)-2,5-diphenyl tetrazolium bromide (MTT) assay. THP-1 cells were cultured in complete growth medium comprising RPMI-1640 (pH 7.4) supplemented with 2.2 g/L NaHCO3 and 10% v/v heat inactivated fetal bovine serum (HIFBS). An aliquot of 20 μL of samples in 1% DMSO in PBS and 180 μL of THP-1 cells were mixed in 96-well plate. Cells were added at an assay density of 1 × 10^4 cells/mL whereas sample/standard was added to achieve the final concentration of 20 μg/mL. The plate was incubated at 37 °C for 72 h in humidified 5% carbon dioxide incubator (Panasonic, Japan MCO-18 AC-PE). Vincristine and 1% DMSO in PBS were used as positive and negative controls respectively. After incubation, 20 μL of pre-filter sterilized MTT solution (4 mg/mL in distilled water) was added in plates and incubated for 4 h at 37 °C in CO2 incubator. Later, colored formazan crystals were separated by removing supernatant and dissolved in 100 μL of DMSO. Reaction was allowed to stand for 1 h to ensure complete dissolution and absorbance was measured at 540 nm using microplate reader (Biotech USA, Elx 800).

Streptomyces 85E = test: Protein kinase inhibition assay (Streptomyces disc assay); type: cell-based; conditions: for MIC for PK inhibition: minimum inhibitory concentration
Procedure: Protein kinase inhibitory activity of the tributyltin (IV) compounds was measured against Streptomyces 85E strain using previously described protocol. Culture of Streptomyces 85E was refreshed in tryptic soy broth and 100 μL of this was swabbed on sterile ISP4 medium under aseptic conditions. […] Diameter (mm) of zone of inhibition (ZOI) around all samples and controls was measured as clear zone (CZ) and bald zone (BZ). […] BZ is indicative of PK inhibition.

[1] = system: promastigotes of Leishmania tropica kwh 23; test: Antileishmanial activity (MTT assay); type: cell-based; conditions: 72 h; for Antileishmanial % growth inhibition (mortality, lethality): 20 μg/mL; for Antileishmanial LC50: MTT
Procedure: Antileishmanial activity against the promastigotes of Leishmania tropica kwh 23 was evaluated by a quantitative colorimetric assay using 3-(4,5-dimethylthiazol-2-yl)-2, 5-diphenyl tetrazolium bromide (MTT) with minor modifications. […] […] Negative control wells contained 1% DMSO in PBS. All samples were run in triplicate. Afterwards, plates were incubated for 4 h at 24 °C with 20 μL of MTT (4 mg/mL in distilled water) to determine the cell viability. Supernatant from each well was carefully removed leaving behind formazan crystals. Colored formazan crystals were dissolved in 100 μL of DMSO by setting those aside for 1 h to ensure complete dissolution. Cell viability was estimated by measuring absorbance at 540 nm using microplate reader and percentage growth inhibition was calculated.

[2] = system: Leishmania tropica kwh 23 promastigotes; test: Photosensitizing effect against leishmania; type: cell-based; conditions: for Photosensitizing effect % growth inhibition, Sunlight with IR filter: 15 min; for Photosensitizing effect % growth inhibition, Sunlight: 15 min sunlight
Procedure: Photosensitizing effect of tributyltin (IV) compounds was determined in three parallel groups. Samples and controls were exposed for 15 min to sunlight (168 W/m^2 of sun intensity) or sunlight with IR filter or dark conditions. The relative intensity of sunlight was measured by a CCD spectrometer (Ocean Optics, model HR4000). Later, plates were incubated at 25 °C for 72 h and cell viability was determined by MTT assay as given above. In this assay, samples were tested at concentrations showing less than 55% inhibition in primary antileishmanial assay to exclude false positive.

isolated lymphocytes = test: Cytotoxicity against isolated lymphocytes (MTT assay); type: cell-based, human; conditions: 24 h
Procedure: Lymphocytes were isolated using previously described protocol with some modifications. Informed consent was obtained from volunteers and procedure was conducted according to international ethical guidelines after gaining approval from the ethical committee of the Quaid-i-Azam University. A volume of 3 mL of blood was obtained from a healthy donor by venipuncture and diluted (1:1) with PBS. It was layered over 2 mL Histopaque-1077 and centrifuged at 800 × g for 20 min. The buffy coat was aspirated into 5 mL of PBS and centrifuged at […] for 4 min to pellet the lymphocytes. The pellet was suspended in 1 mL of RPMI-1640 and cell density was adjusted to get 1 × 10^5 cells/mL. For cytotoxicity determination, 20 μL of samples (20 μg/mL) or vincristine or 1% DMSO in PBS and 180 μL of lymphocyte suspension were incubated in 96-well plate at 37 °C for 24 h in humidified 5% carbon dioxide incubator (Panasonic, Japan MCO-18 AC-PE). Phytohaemagglutinin (PHA) was added in medium to stimulate lymphocyte growth. Afterwards, MTT assay was done as described above. IC50 values were determined using 3-fold dilutions of the samples.

HepG2 cell line = test: Cytotoxicity against HepG2 cell line (SRB assay); type: cell-based, human; conditions: for HepG2 % growth inhibition: 20 μg/mL
Procedure: Cytotoxicity was further evaluated against HepG2 cell line by sulforhodamine B (SRB) colorimetric assay. Dulbecco's Modified Eagle Medium (DMEM) supplemented with 10% FBS, 100 μg/mL streptomycin sulfate, 100 IU/mL penicillin G sodium and 0.25 μg/mL amphotericin B was used to culture HepG2 cells in CO2 (5%) incubator (Panasonic, Japan MCO-18 AC-PE) at 37 °C. An aliquot of 20 μL (1% DMSO in PBS) of samples was added to 180 μL of cell culture at an assay density of 1x10^5 cells/mL in 96-well plate. The plate was incubated at 37 °C for 72 h in CO2 incubator. Final concentration of compounds/standard was 20 μg/mL. Doxorubicin and 1% v/v DMSO in PBS ere used as positive and negative controls respectively. An equivalent number of cells in twelve wells of 96-well plate were incubated for 1 h at 37 °C and labeled as day zero control. Later, cells were fixed by adding 50 μL of cold 20% w/v TCA for 1 h at 4 °C. These were washed with tap water, air dried and stained with 50 μL of 0.057% w/v SRB in 1% v/v acetic acid for 30 min at room temperature. Cells were again washed with 1% v/v acetic acid, dried overnight and 200 μL of 10 mM Tris base (pH 10) was used to solubilize the bound dye for 1 h. Absorbance was measured at 515 nm using a microplate reader. Percentage of growth inhibition was calculated as: % inhibition = 100 – [(As – Ao) / (An – Ao) × 100], where, Ao, As and An are absorbance of day zero control, samples and negative control respectively. IC50 values were determined using 3-fold dilutions of the samples.

[3] = 6.25 μg/disc, BZ indicative of PK inhibition
[4] = 50 μg/disc, BZ indicative of PK inhibition, (-) shows no ZOI

| SMILES | ZOI BZ (bald zone) (Streptomyces 85E; [3]) [mm] | ZOI CZ (clear zone) (Streptomyces 85E; 50 μg/disc, (-) shows no ZOI) [mm] | MIC for PK inhibition (Streptomyces 85E) [μg/disc] | Antileishmanial % growth inhibition (mortality, lethality) [1] [%] | Antileishmanial LC50 [1] [µg/mL] | HepG2 % growth inhibition (HepG2 cell line; 72 h) [%] | HepG2 IC50 (HepG2 cell line; 72 h, 3-fold dilutions) [µg/mL] | Photosensitizing effect % growth inhibition, Control ([2]; 0.092 μg/mL) [%] | Photosensitizing effect % growth inhibition, Dark ([2]; 0.092 μg/mL) [%] | Photosensitizing effect % growth inhibition, Sunlight with IR filter ([2]; 0.092 μg/mL) [%] | Photosensitizing effect % growth inhibition, Sunlight ([2]; 0.092 μg/mL) [%] | other results |
| --- | --- | --- | --- | --- | --- | --- | --- | --- | --- | --- | --- | --- |
| CCC[CH2][Sn]([CH2]CCC)([CH2]CCC)[O]C(=O)COc1ccc(OCC(=O)[O][Sn]([CH2]CCC)([CH2]CCC)[CH2]CCC)cc1 [Ch-409, bis(tributylstannyl) 2,2’-(1,4-phenylenebis(oxy))diacetate] | 30 ± 1.17 | 30 ± 1.75 | 0.781 ± 0.002 | 97.5 ± 1.98 | 0.954 ± 0.158 | 99.5 ± 3.15 | 0.08 ± 0.001 | – | – | – | – | THP-1 % growth inhibition (THP-1 cell line): 19.4 ± 1.41%; ZOI CZ (clear zone) (Streptomyces 85E; 6.25 μg/disc, (-) shows no ZOI): 12 ± 0.19 mm; ZOI BZ (bald zone) (Streptomyces 85E; [4]): 31 ± 1.5 mm; Photosensitizing effect % growth inhibition, Control ([2]; 0.55 μg/mL): 52.05 ± 1.98%; Photosensitizing effect % growth inhibition, Dark ([2]; 0.55 μg/mL): 56.9 ± 0.02%; Photosensitizing effect % growth inhibition, Sunlight with IR filter ([2]; 0.55 μg/mL): 47.5 ± 1.56%; Photosensitizing effect % growth inhibition, Sunlight ([2]; 0.55 μg/mL): 57.63 ± 1.99%; Isolated lymphocytes IC50 (isolated lymphocytes): 15.18 ± 0.75ǂ μg/mL |
| CCC[CH2][Sn]([CH2]CCC)([CH2]CCC)[O]C(=O)/C=C\C(=O)Nc1ccc(C(=O)OCC)cc1 [Ch-431, ethyl (Z)-4-(4-oxo-4-((tributylstannyl)oxy)but-2-enamido)benzoate] | 26 ± 0.16 | 31 ± 0.78 | 0.049 ± 0.002 | 97.5 ± 2.75 | 0.078 ± 0.002 | 96.2 ± 2.23 | 5.48 ± 0.16 | 50.7 ± 1.25 | 51.5 ± 1.35 | 47.5 ± 0.99 | 53.2 ± 1.55 | THP-1 % growth inhibition (THP-1 cell line): 42.7 ± 1.13%; ZOI CZ (clear zone) (Streptomyces 85E; 6.25 μg/disc, (-) shows no ZOI): 10 ± 0.33 mm; ZOI BZ (bald zone) (Streptomyces 85E; [4]): 33 ± 1.15 mm; Isolated lymphocytes % growth inhibition (isolated lymphocytes; 20 μg/mL): 10.7 ± 1.17ǂ % |
| CCC[CH2][Sn]([CH2]CCC)([CH2]CCC)[O]C(=O)c1ccccc1C(=O)Nc1cccc2ccccc12 [Ch-450, tributylstannyl 2-(naphthalene-1-ylcarbamoyl)benzoate] | 28 ± 2.5 | 32 ± 1.13 | 0.195 ± 0.001 | 97.4 ± 1.35 | 0.361 ± 0.017 | 98.5 ± 1.85 | 2.81 ± 0.34 | 24.5 ± 1.63 | 26.34 ± 0.15 | 20.7 ± 0.43 | 32.12 ± 1.28 | Isolated lymphocytes % growth inhibition (isolated lymphocytes; 20 μg/mL): 11.7 ± 0.05ǂ % |
| CCC[CH2][Sn]([CH2]CCC)([CH2]CCC)[O]C(=O)/C=C\C(=O)Nc1cccc(C)c1C [Ch-459, tributylstannyl (Z)-4-((2,3-dimethylphenyl)amino)-4-oxobut-2-enoate] | 30 ± 0.24 | 35 ± 0.99 | 0.391 ± 0.004 | 97.9 ± 3.99 | 0.323 ± 0.002 | 96.5 ± 4.66 | 0.62 ± 0.005 | 20.1 ± 0.59 | 22.7 ± 1.05 | 30.14 ± 1.47 | 25.5 ± 1.75 | Isolated lymphocytes IC50 (isolated lymphocytes): 5.78 ± 0.34ǂ μg/mL |
| COc1cccc2c1C(=O)c1c(O)c3c(c(O)c1C2=O)C[C@@](O)(C(=O)CO)C[C@@H]3O[C@H]1C[C@H](N)[C@H](O)[C@H](C)O1 [Doxorubicin, reference compound] | – | – | – | – | – | – | – | – | – | – | – | inhibition at 20 µg/mL (HepG2 cell line; Homo sapiens, HepG2, 20 μg/mL, 72 h, read-out: HepG2 % growth inhibition): 97.2 ± 1.14%; IC50 (HepG2 cell line; Homo sapiens, HepG2, 72 h, 3-fold dilutions): 5.36 ± 0.75 µg/mL (≈ 9.86 µM) |
| CC(C)CCCCCCCCC[C@@H]1CC(=O)N[C@@H](CCC(=O)O)C(=O)N[C@@H](CC(C)C)C(=O)N[C@H](CC(C)C)C(=O)N[C@@H](C(C)C)C(=O)N[C@@H](CC(=O)O)C(=O)N[C@H](CC(C)C)C(=O)N[C@@H](CC(C)C)C(=O)O1 [Surfactin, reference compound] (EL[dL]VD[dL]L; linker N-C via X1) | – | – | – | – | – | – | – | – | – | – | – | ZOI BZ (bald zone) (Streptomyces 85E; Surfactin positive control, printed 10 μg/mL): 23 ± 1.98 mm |
| CC[C@]1(O)C[C@H]2CN(CCc3c([nH]c4ccccc34)[C@@](C(=O)OC)(c3cc4c(cc3OC)N(C=O)[C@H]3[C@@](O)(C(=O)OC)[C@H](OC(C)=O)[C@]5(CC)C=CCN6CC[C@]43[C@@H]65)C2)C1 [Vincristine, reference compound] | – | – | – | – | – | – | – | – | – | – | – | inhibition at 20 µg/mL (THP-1 cell line; Homo sapiens, THP-1, 20 μg/mL, read-out: THP-1 % growth inhibition): 100%; inhibition at 20 µg/mL (isolated lymphocytes; Homo sapiens, Lymphocyte, 20 μg/mL, read-out: Isolated lymphocytes % growth inhibition): 76.3 ± 3.65%; IC50 (isolated lymphocytes; Homo sapiens, Lymphocyte): 6.66 ± 0.09 µg/mL (≈ 8.07 µM) |
